Patent EP2699223B1, “NEW COSMETIC USES OF GHK TRIPEPTIDE” (Sederma, priority 2011, dated 2012)
Peptide text beside a SMILES is read from it. * marks the point of attachment. Biotin = O=C1N[C@H]2[C@H](CS[C@H]2CCCCC(=O)*)N1

Assays:
Type in all cases: in vivo, female volunteers
[1] = tested on: lashes; experiment: Lash diameter by photo measurement and image analysis, same double-blind clinical study; conditions: after 30 days of daily use; 2% in a basic mascara formula
Experimental: (§1) Lashes were photographed in a precise manner that could be reproduced and at a special angle so that lashes could be viewed perfectly. An image analysis was then performed on these photographs to quantify lash length and diameter in the central segment of the lids of female volunteers.
(§2) This was a double-blind study that employed non-invasive methods. 30 female volunteers used two mascaras: 1) VOLUMISING BLACK MASCARA (according to Example 1) containing 0.00066% of Biot-GHK and 0.01% of panthenol on one eye and 2) its placebo on the other eye (same formula without the active ingredients of the invention).
The measurements were performed before application (TO) then after 15 and 30 days of daily application. Application during the eight hours preceding a measurement day was not allowed.
The volunteers had to apply each mascara as follows: 3 brush strokes to the outside lashes, 4 brush strokes to the central lashes and 3 brush strokes to the interior lashes. […]
Once the head was correctly positioned on an appropriate mechanism, the lashes were frontally photographed using a Reflex Nikon D300 (12.3 megapixel) digital camera with a "macro" (60 mm F/2.8 GED) lens and a flash. The images were analysed with special software. […] The lengths and diameters were measured on the lashes of segments S2, S3 and S4 (5 lashes per segment) on each side. […]

[2] = tested on: lashes; experiment: Blind clinical evaluation of lash photos by 3 trained experts (lengthening, thickening); conditions: summary statement
Experimental: Concurrent to this quantitative metrological study, two other evaluations were performed: one clinical evaluation in which trained experts scored photos and another evaluation in which the volunteers themselves evaluated the perceived effects using a multi-item questionnaire.
as §2
Table 3: Blind evaluation performed by 3 trained experts on lash lengthening in photos of 30 volunteers.
Table 4: Blind evaluation performed by 3 trained experts on increased lash diameter in photos of 30 volunteers

[3] = tested on: lashes; experiment: Lash length by photo measurement and image analysis, double-blind clinical study, mascara on one eye versus placebo on the other; conditions: length and diameter, 15 and 30 days
Experimental: The purpose of the clinical study was to evaluate the following among volunteers: • lash lengthening, • lash thickening, • reinforcement of lash anchorage (decrease in lash loss during mascara removal).
as §1, §2
The measurements were performed before application (TO) then after 15 and 30 days of daily application. Application during the eight hours preceding a measurement day was not allowed. […]
Once the head was correctly positioned on an appropriate mechanism, the lashes were frontally photographed using a Reflex Nikon D300 (12.3 megapixel) digital camera with a "macro" (60 mm F/2.8 GED) lens and a flash. The images were analysed with special software. […] The lengths and diameters were measured on the lashes of segments S2, S3 and S4 (5 lashes per segment) on each side.

NCCCC[C@H](NC(=O)[C@H](Cc1c[nH]cn1)NC(=O)CNC(=O)CCCC[C@@H]1SC[C@@H]2NC(=O)N[C@@H]21)C(=O)O [Biot-GHK peptide, Biotinoyl tripeptide-1] (Biotin-Gly-His-Lys-OH)
Increase printed as "volume" [1]: +14.2 mm^3
Subjects in whom the variation was observed (first of "respectively": length) [2]: 87%
Subjects in whom the variation was observed (second of "respectively": diameter, printed volume) [2]: 73%
Result higher than the increase of parameters with the placebo [3]: about 60%
